The source of these data is US20150050299A1, “METHODS FOR ENHANCING IMMUNE RESPONSE” (priority 2010, published 2015).

Test [1] deals with 4T1 breast cancer cells. Particulars: mouse, in vivo; cited from earlier work.
Test [2] deals with L1210 leukemia. Particulars: cited from earlier work.
The test system of test [3] is squamous cell carcinomas (SCCs). It is filed as in vivo. Particulars: agent alone. Here is the method:
The combination therapy of polyamine biosynthesis/uptake inhibition was tested against the K6/ODC transgenic mouse murine squamous cell carcinoma (SCC) model recently described.^98 The K6/ODC model was developed to assess whether ODC overexpression was a contributing cause, or an effect of malignant transformation. […] While most skin tumorigenesis models yielded benign squamous papillomas as the predominant tumor type, when the K6/ODC transgene was expressed on the FVB/N strain background, the majority of tumors that developed were aggressive squamous cell carcinomas. These SCCs appeared as early as 5 weeks after treatment and in high multiplicities (up to four tumors per mouse), making this a very efficient model for SCC induction. Using this model, we were thus able to conclude that over-expression of ODC is a sufficient condition for tumor promotion in mouse skin.^99
We conducted an in vivo anti-tumor trial of DFMO combined with either the D-C16-acyl Lys-spm conjugate AMXT 1501 (FIG. 4) or the L-C16-alkyl AMXT 1569 analog (FIG. 5) in the K6/ODC SCC model.
The concentration of AMXT 1501 was 14 μg/ml, or an average daily dose of ˜50-65 μg (equivalent to ˜3 mg/kg/d). […] It is expected that great improvements in the oral bioavailability of AMXT 1501 would result from insightful drug formulation.

The subject of test [4] is UVB-induced skin cancer. Particulars: 1% in drinking water for 3 weeks before UVB; untreated control 38%; cited from earlier work.
Test [5] deals with UV-induced tumor challenges. The following applies: splenocytes from UV-irradiated treated mice; without treatment 20 of 24; cited from earlier work.
In test [6] the test system is B16F1 cells. The following applies: 0.5 to 2.0% oral; cited from earlier work.
In test [7] the test system is iNOS protein translation. Particulars: read-out: IC50, iNOS protein translation; peritoneal macrophages; cited from earlier work.
Test [8] relates to iNOS protein translation. Particulars: read-out: IC50, iNOS protein translation; RAW 264.7 cells; cited from earlier work.
For test [9], the system named is L1210 cells. Particulars: i.p. 5 mg/kg for 9 days; cited from earlier work.

Read-outs that look alike come from different tables or passages of the source.

Take `c1cc(CN2CCCNCCNCCCNCC2)ccc1CN1CCCNCCNCCCNCC1` [AMD3100, plerixafor]: the “growth of transplanted 4T1 cells” value in [1] was “significantly reduced”.

Regarding `CCNCCCNCCCCCCCNCCCNCC` [BEPH, N,N′-bis[3-(ethylamino)-propyl]-1-7-heptane diamine], the entries for the “outcome of L1210 leukemia” value in test [2] (T-cell deficient nude mice) and in [2] (immunocompetent C57BL mice) were “not curative” and “cured”, respectively. Moreover, the “effect on tumor or spleen cell polyamine levels” value in [2] (at the doses used) was “no effect”.

Take `NCCC[C@](N)(C(=O)O)C(F)F` [DFMO, α-difluoromethylornithine]: the “anti-tumor response to single agent” value in [3] is on record as “weak effect”. Further, in test [4], the “occurrence of skin cancer” value was 9%. Further, the “recipient mice in which tumors grew” value in test [5] is given as 2 of 24. For the same molecule, in [6], the “macrophage mediated cytolysis of B16F1 cells” value is reported as “two-fold augmented”.

Regarding `NCCCNCCCCNCCCN` [spermine], the values for the IC50 in [7] and in test [8] were 9 µM and 9.2 µM, respectively.

As to `NCCCNCCCCNC(=O)[C@H](O)NC(=O)C[C@@H](O)CCCCN=C(N)N` [sperqualin], the survival entry in test [9] is recorded as “more than 60 days”.
